Results from patent US12370192B2, “Azole-fused pyridazin-3(2H)-one derivatives” (TAKEDA PHARMACEUTICAL COMPANY LIMITED, priority 2019, dated 2025).

Legend:
human GPR139 receptor [1] = biological target: T1, human GPR139 receptor (Homo sapiens, UniProt Q6DWJ6); assay: GPR139 Competition Binding (membrane-based, tritium-labeled ligand); conditions: T-REx-CHO membranes with human GPR139; 6.5 nM tritium-labeled ligand; 11-point curve, 30 μM maximum concentration; read-out: GPR139 Binding Affinity (pKi) (converted)
T1 construct: expressed in transfected cells; host or cells: T-REx-CHO (Thermo Fisher Scientific), doxycycline-induced
T1 sequence (Q6DWJ6 1-353): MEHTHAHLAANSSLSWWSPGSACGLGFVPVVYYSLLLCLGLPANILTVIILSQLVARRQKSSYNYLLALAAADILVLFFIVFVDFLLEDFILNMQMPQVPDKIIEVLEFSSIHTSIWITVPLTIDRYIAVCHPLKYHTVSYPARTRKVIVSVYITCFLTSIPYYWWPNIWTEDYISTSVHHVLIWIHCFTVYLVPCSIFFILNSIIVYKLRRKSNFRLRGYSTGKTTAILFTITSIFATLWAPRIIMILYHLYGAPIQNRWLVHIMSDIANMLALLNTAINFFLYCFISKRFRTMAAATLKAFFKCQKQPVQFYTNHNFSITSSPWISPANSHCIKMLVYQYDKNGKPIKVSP
Experimental: OPR139 Competition Binding
This membrane-based assay measures the ability of compounds to competitively bind GPR139 in stably transfected TREx™-CHO membranes. To prepare the membranes, T-REx™-CHO (Thermo Fisher Scientific®) cells are stably expressed with human GPR139 receptor, whose expression is controlled by a tetracycline-inducible element. The cells are cultured in medium containing F-12K nutrient mixture-Kaighn's modification, 10% tetracycline-free FBS, Blasticidin S HCl (10 μg/mL) and Hygromycin B (200 μg/mL). GPR139 receptor expression is induced for 18 hours with 2 μg/mL doxycycline (Sigma D9891) in growth media. After addition of doxycycline, cells are harvested in PBS and pelleted by centrifugation for 5 minutes at 200×G. Liquid is aspirated off and cells are resuspended in ice cold lysis buffer (20 mM HEPES/5 mM EDTA pH 7.4/1× Roche® protease inhibitor). Samples are vortexed until homogenous and then placed on ice and homogenized using a Dounce homogenizer at 50% power (3 cycles, 10 strokes per cycle). Lysate is centrifuged at 4° C. for 10 minutes in a tabletop Sorvall® centrifuge at 2000×G. The supernatant is recovered and centrifuged in a Sorvall® ultracentrifuge at 35,000 rpm for 30 minutes at 4° C. The supernatant is discarded, and the remaining pellet resuspended in lysis buffer (20 mM HEPES/0.1 mM EGTA/Roche® protease inhibitor). Membrane protein concentration is determined using Thermo Fisher® BCA quantification kit and is aliquoted into microtubes. Tubes are snap frozen in liquid nitrogen and stored at −80° C. Prior to use, the membranes are removed from cold storage, thawed to room temperature, vortexed until homogenous and diluted in assay buffer (20 mM HEPES pH 7.3, 5 mM MgCl2, 1 mM CaCl2), 1× Thermo Scientific® Halt™ protease inhibitor (78429)).
The assay is run in 96-well, polypropylene, v-bottom plates (Greiner Bio-One® 651201). Test compound in DMSO is added to the wells of each plate (11-point dose response curve, 30 μM maximum concentration, 3-fold serial dilution). A fixed amount of tritium-labeled ligand, (S)-2-(2,3-dimethyl-7-oxothieno[2,3-d]pyridazin-6(7H)-yl)-N-(1-(4-methoxyphenyl-2-t)propan-2-yl)acetamide (Quotient Bioresearch) in assay buffer (6.5 nM assay concentration) is added to each well of the assay plate, which is then agitated on a plate shaker for 30 seconds. Next, a fixed amount of membranes in assay buffer (2 μg membranes) is added to each well of the assay plate, which is then spun for 30 seconds at 300 rpm in a tabletop Eppendorf centrifuge, and then incubated at room temperature for 20 minutes. Using a Tomtec harvester, the contents of the assay plate are transferred to Filtermat A (PerkinElmer® No. 1450-421) which prior to use is pre-soaked in 0.5% PEI (Sigma P3143) for 3 hours and dried at room temperature overnight. Following transfer, the Filtermat is washed 5 times with cold wash buffer (20 mM HEPES pH 7.3, 100 mM NaCl). The Filtermat is dried using a microwave oven and placed in a sample bag (PerkinElmer® No. 1450-432) with a scintillator sheet (PerkinElmer® No. 1450-411). The scintillator sheet is melted to the Filtermat using a heat block set to 65° C., placed in a MicroBeta® cartridge and read using a MicroBeta® scintillation counter. Binding curves are generated with a four-parameter logistic equation using GraphPad Prism® 6 and the inhibition constant Ki is reported as pKi.

human GPR139 receptor [2] = biological target: T1, human GPR139 receptor; assay: Measurement of GPR139 Activation Via Calcium Signaling (FLIPR, T-REx-CHO cells); type: cell-based; conditions: T-REx-CHO cells stably expressing human GPR139, 11-point dose response, 10 μM maximum concentration, read-out: GPR139 Potency (pEC50) (converted)
Experimental: Measurement of GPR139 Activation Via Calcium Signaling
This cell-based assay measures the ability of compounds to activate GPR139 in stably transfected T-REx™-CHO cells. T-REx™-CHO cells (Thermo Fisher Scientific®) are stably expressed with human GPR139 receptor, whose expression is controlled by a tetracycline-inducible element. The cells are cultured in medium containing F-12K nutrient mixture-Kaighn's modification, TripleLE™ Express (1×)-phenol red, Dulbecco's phosphate-buffered saline (1×), 10% tetracycline-free FBS, Blasticidin S HCl (10 μg/mL) and Hygromycin B (200 μg/mL). The cells are introduced into the wells of a 384-well black clear bottom plate (Costar®) at 10,000 cells/well. GPR139 receptor expression is induced with 2 μg/mL doxycycline (Sigma D9891). The plate is allowed to stand at room temperature for 10-30 minutes and then incubated at 37° C. and 5% CO2 for 17 hours prior to assay.
Culture media is removed from cells and 45 μL of 1× calcium dye (2.5 mM) is added to each well and incubated at 37° C. and 5% CO2 for 40 minutes. The plate is removed from the incubator and allowed to stand at RT for 20 minutes without a plate cover prior to measurement of calcium signaling. The calcium dye is prepared by adding 10 mL of assay buffer (Hank's Balanced Salt Solution (1×), 1 mM HEPES at pH 7.4) to one vial of calcium dye (FLIPR® Calcium 5 Assay Kit; Molecular Devices) at room temperature, vortexing the mixture until homogenous, and transferring the dye to a 250 mL flask using 10 mL of assay, buffer to rinse the vial. The dye is subsequently transferred to a conical flask, which is filled to the 200 mL mark with assay buffer, and 1 mL of […] probenecid solution (142.68 mg/mL in 1M NaOH aq) is added.
Example compounds suspended in DMSO are received from compound management in microtiter plates (0.25 μL/well) and are diluted in assay buffer (25 μL). Following incubation of the cell plate, the Example compounds are added to the cells (11-point dose response, 10 μM maximum concentration) using a FLIPR® Tetra system (Molecular Devices) and fluorescence is measured continuously for 1 minute. EC50 curves are generated with a four-parameter logistic equation using GraphPad Prism® 6, and activation of GPR139 for each example compound is reported as pEC50.

Row | SMILES | Ki (human GPR139 receptor [1]) [µM] | EC50 (human GPR139 receptor [2]) [µM]
1 | Cc1ccc([C@H](C)NC(=O)Cn2nc(C)c3cnn(C(C)(C)C)c3c2=O)c(F)c1 [Example 16, (S)-2-(1-(tert-butyl)-4-methyl-7-oxo-1,7-dihydro-6H-pyrazolo[3,4-d]pyridazin-6-yl)-N-(1-(2-fluoro-4-methylphenyl)ethyl)acetamide] | 0.011 | 0.2
2 | COc1ccc([C@H](C)NC(=O)Cn2ncc3c(c(C)nn3C(C)C)c2=O)cc1 [Example 17, (S)-2-(1-isopropyl-3-methyl-4-oxo-1,4-dihydro-5H-pyrazolo[3,4-d]pyridazin-5-yl)-N-(1-(4-methoxyphenyl)ethyl)acetamide] | 2.95 | 0.0575
3 | COc1ccc([C@H](C)NC(=O)Cn2ncc3c(c(C4CC4)nn3C(C)C)c2=O)cc1 [Example 18, (S)-2-(3-cyclopropyl-1-isopropyl-4-oxo-1,4-dihydro-5H-pyrazolo[3,4-d]pyridazin-5-yl)-N-(1-(4-methoxyphenyl)ethyl)acetamide] | 0.355 | 0.17
4 | COc1ccc([C@H](C)NC(=O)Cn2ncc3c(c(C)nn3C)c2=O)c(F)c1 [Example 19, (S)-2-(1,3-dimethyl-4-oxo-1,4-dihydro-5H-pyrazolo[3,4-d]pyridazin-5-yl)-N-(1-(2-fluoro-4-methoxyphenyl)ethyl)acetamide] | 1.07 | 0.0676
5 | Cc1ccc([C@H](C)NC(=O)Cn2nc(C)c3c(C)nn(C)c3c2=O)cc1 [Example 20, (S)—N-(1-(p-tolyl)ethyl)-2-(1,3,4-trimethyl-7-oxo-1,7-dihydro-6H-pyrazolo[3,4-d]pyridazin-6-yl)acetamide] | 0.178 | 0.0417
6 | Cc1ccc([C@H](C)NC(=O)Cn2nc(C)c3c(C)nn(C(C)C)c3c2=O)cc1 [Example 21, (S)-2-(1-isopropyl-3,4-dimethyl-7-oxo-1,7-dihydro-6H-pyrazolo[3,4-d]pyridazin-6-yl)-N-(1-(p-tolyl)ethyl)acetamide] | 0.0282 | 0.115
7 | Cc1ccc([C@H](C)NC(=O)Cn2nc(C)c3c(C)nn(C4CC4)c3c2=O)cc1 [Example 22, (S)-2-(1-cyclopropyl-3,4-dimethyl-7-oxo-1,7-dihydro-6H-pyrazolo[3,4-d]pyridazin-6-yl)-N-(1-(p-tolyl)ethyl)acetamide] | 0.00912 | 0.105
8 | Cc1ccc([C@H](C)NC(=O)Cn2ncc3c(C)nn(C(C)C)c3c2=O)cc1 [Example 23] | 0.102 | 0.166
9 | Cc1nn(C2CC2)c2cnn(CC(=O)N[C@@H](C)c3ccc(Cl)cc3F)c(=O)c12 [Example 24, (S)—N-(1-(4-chloro-2-fluorophenyl)ethyl)-2-(1-cyclopropyl-3-methyl-4-oxo-1,4-dihydro-5H-pyrazolo[3,4-d]pyridazin-5-yl)acetamide] | 0.0977 | 0.0468
10 | Cc1nn(C2CC2)c2cnn(CC(=O)N[C@@H](C)c3cccc(F)c3)c(=O)c12 [Example 25, (S)-2-(1-cyclopropyl-3-methyl-4-oxo-1,4-dihydro-5H-pyrazolo[3,4-d]pyridazin-5-yl)-N-(1-(3-fluorophenyl)ethyl)acetamide] | 0.617 | 0.0234
11 | Cc1ccc(C)c([C@H](C)NC(=O)Cn2ncc3c(c(C)nn3C3CC3)c2=O)c1 [Example 26, (S)-2-(1-cyclopropyl-3-methyl-4-oxo-1,4-dihydro-5H-pyrazolo[3,4-d]pyridazin-5-yl)-N-(1-(2,5-dimethylphenyl)ethyl)acetamide] | 38.9 | 0.933
12 | Cc1ccc([C@H](C)NC(=O)Cn2ncc3c(C)nn(C)c3c2=O)cc1 [Example 27, (S)-2-(1,3-dimethyl-7-oxo-1,7-dihydro-6H-pyrazolo[3,4-d]pyridazin-6-yl)-N-(1-(p-tolyl)ethyl)acetamide] | 0.219 | 0.24
13 | Cc1ccc([C@H](C)NC(=O)Cn2ncc3c(C)nn(C4CC4)c3c2=O)cc1 [Example 28, (S)-2-(1-cyclopropyl-3-methyl-7-oxo-1,7-dihydro-6H-pyrazolo[3,4-d]pyridazin-6-yl)-N-(1-(p-tolyl)ethyl)acetamide] | 0.0324 | 0.0525
14 | Cc1ccc([C@H](C)NC(=O)Cn2nc(C)c3c(ncn3C)c2=O)cc1 [Example 29, (S)-2-(1,7-dimethyl-4-oxo-1,4-dihydro-5H-imidazo[4,5-d]pyridazin-5-yl)-N-(1-(p-tolyl)ethyl)acetamide] | 30.2 | 0.513
15 | Cc1nn(C2CC2)c2cnn(CC(=O)N[C@@H](C)c3cccc(F)c3F)c(=O)c12 [Example 30, (S)-2-(1-cyclopropyl-3-methyl-4-oxo-1,4-dihydro-5H-pyrazolo[3,4-d]pyridazin-5-yl)-N-(1-(2,3-difluorophenyl)ethyl)acetamide] | 0.257 | 0.0724
16 | COc1ccc([C@H](C)NC(=O)Cn2ncc3c(c(C)nn3C3CC3)c2=O)cc1C [Example 31, (S)-2-(1-cyclopropyl-3-methyl-4-oxo-1,4-dihydro-5H-pyrazolo[3,4-d]pyridazin-5-yl)-N-(1-(4-methoxy-3-methylphenyl)ethyl)acetamide] | 11.7 | 0.0575
17 | Cc1nn(C2CC2)c2cnn(CC(=O)N[C@@H](C)c3ccc(C(F)(F)F)cn3)c(=O)c12 [Example 32] | 30.2 | 0.617
